We go through 49 compounds from article doi:10.1101/2024.03.08.583891v2 (biorxiv, 2024).

T1 sequence (Q00960 27-1482, other chains not shown): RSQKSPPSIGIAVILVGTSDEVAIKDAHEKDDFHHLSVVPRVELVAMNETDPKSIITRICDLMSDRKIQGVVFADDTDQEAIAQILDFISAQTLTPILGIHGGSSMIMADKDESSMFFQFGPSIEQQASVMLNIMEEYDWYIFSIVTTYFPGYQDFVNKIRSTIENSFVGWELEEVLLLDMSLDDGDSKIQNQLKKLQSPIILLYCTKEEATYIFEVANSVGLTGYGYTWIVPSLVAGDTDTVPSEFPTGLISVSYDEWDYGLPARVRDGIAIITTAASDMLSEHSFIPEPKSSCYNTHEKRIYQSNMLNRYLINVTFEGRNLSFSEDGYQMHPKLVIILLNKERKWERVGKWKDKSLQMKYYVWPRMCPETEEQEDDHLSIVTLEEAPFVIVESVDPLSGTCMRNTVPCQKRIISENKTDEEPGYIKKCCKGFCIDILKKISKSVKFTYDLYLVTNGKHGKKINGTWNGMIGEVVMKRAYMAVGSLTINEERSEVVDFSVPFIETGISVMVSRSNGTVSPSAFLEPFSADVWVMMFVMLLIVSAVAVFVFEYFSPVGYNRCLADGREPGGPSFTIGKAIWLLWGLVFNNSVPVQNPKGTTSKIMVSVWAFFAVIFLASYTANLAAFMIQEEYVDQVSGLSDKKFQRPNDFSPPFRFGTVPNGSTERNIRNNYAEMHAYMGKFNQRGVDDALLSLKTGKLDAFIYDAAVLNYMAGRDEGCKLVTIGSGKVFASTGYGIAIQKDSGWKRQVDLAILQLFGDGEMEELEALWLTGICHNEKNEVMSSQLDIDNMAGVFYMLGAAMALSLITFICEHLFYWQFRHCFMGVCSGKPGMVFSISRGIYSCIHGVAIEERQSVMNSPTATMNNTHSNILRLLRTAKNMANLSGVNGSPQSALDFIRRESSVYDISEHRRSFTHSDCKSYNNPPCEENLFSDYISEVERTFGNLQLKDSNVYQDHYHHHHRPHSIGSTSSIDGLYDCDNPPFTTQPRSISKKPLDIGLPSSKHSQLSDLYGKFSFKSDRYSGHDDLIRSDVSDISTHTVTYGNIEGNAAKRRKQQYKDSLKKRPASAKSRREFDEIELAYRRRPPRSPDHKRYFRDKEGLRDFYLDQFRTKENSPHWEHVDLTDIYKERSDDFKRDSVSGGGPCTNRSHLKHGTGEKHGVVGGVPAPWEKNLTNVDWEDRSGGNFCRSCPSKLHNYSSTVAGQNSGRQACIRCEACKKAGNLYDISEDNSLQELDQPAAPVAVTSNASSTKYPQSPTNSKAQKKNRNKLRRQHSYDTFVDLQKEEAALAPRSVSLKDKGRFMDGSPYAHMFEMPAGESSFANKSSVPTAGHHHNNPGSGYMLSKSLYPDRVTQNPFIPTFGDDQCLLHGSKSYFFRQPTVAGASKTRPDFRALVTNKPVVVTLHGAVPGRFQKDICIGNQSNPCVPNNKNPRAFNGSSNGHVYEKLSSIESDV

One test has as its target T1, NMDA receptor histamine site (NMDA(HA)R), native NMDAR of rat hippocampal synaptosomes (Rattus norvegicus, UniProt P35439+Q00960). In words: tissue or organelle. The settings on record: read-out: Intrinsec activity %.
As for `COc1cc2c(cc1OC)CC(NCC(O)c1ccc(F)cc1)CC2` (stereo not shown) [ST 593], the Emax was determined as 25%.
The same measure, in the same setting: in the case of `COc1cc2c(cc1OC)CC(NCC(O)c1ccc(C(F)(F)F)cc1)CC2` (stereo not shown) [ST 590] it was 30%; in that of `CCN(CC(O)c1ccc(C(F)(F)F)cc1)C1CCc2cc(OC)c(OC)cc2C1` (stereo not shown) [ST 592], 30%; in that of `CCCNC1CCc2ncsc2C1` (stereo not shown) [ST 581], 50%.

Another test concerns the target T1, NMDA receptor histamine site (NMDA(HA)R), native NMDAR of rat hippocampal synaptosomes. As to the kind of experiment: tissue or organelle. The settings on record: read-out: Intrinsec activity %. The source holds these as a separate data set.
On to `Nc1nc2ccc(CCNCCCCCc3ccccc3)cc2s1` [Fub 306], for which the Emax was determined as 33%.
Regarding `Nc1nc2ccc(CCNCCc3ccccc3)cc2s1` [Fub 281], the Emax was 30%.
On the same count and under the same terms, as for `Nc1nc2ccc(CCNCCCc3ccccc3)cc2s1` [Fub 292], the figure is 32%; as for `Nc1nc2ccc(CCNCC3CCCCC3)cc2s1` [Fub 266], 48%.
Same read-out and setting: in the case of `COc1ccc(CCNCCc2ccc3nc(N)sc3c2)cc1` [Fub 298] it was 19%; in that of `Nc1nc2ccc(CCNCc3ccccc3)cc2s1` [Fub 299], 36%; in that of `Cc1ccc(CCNCCc2ccc3nc(N)sc3c2)cc1` [Fub 297], 32%.
Still for that read-out and setting: in the case of `Nc1nc2ccc(CCNCCCCCCc3ccccc3)cc2s1` [Fub 307] it was 33%.

The next test shares this target. As to the kind of experiment: tissue or organelle. The settings on record: read-out: Intrinsec activity %. This is another data set of the same source.
For `NCc1ccc2nc(N)sc2c1` [Fub 223], the Emax is 34%.
`NCCc1ccc2nc(N)sc2c1` [Fub 247]: the Emax stood at 48%.
Same read-out and setting: as for `NCCc1ccc2nc(N)[se]c2c1` [Fub 300], the figure is 45%.

The next test shares this target. As to the kind of experiment: tissue or organelle. The settings on record: read-out: Intrinsec activity %. The source holds these as a separate data set.
Take `Nc1nc(C2CCCC(N)C2)cs1` (stereo not shown) [Fub 235]: the Emax worked out at 38%.
Still for that read-out and setting: in the case of `CC1(C)C(C(=O)c2cn(Cc3ccc(F)cc3)c3ccccc23)C1(C)C` [Fub 144] it was 35%; in that of `Nc1nc(C2CCC(N)CC2)c[se]1` (stereo not shown) [Fub 210], 33%.
Still for that read-out and setting: as for `Cc1sc(N)nc1/C=C/CN` [Fub 242], the figure is 75%.
On the same count and under the same terms, in the case of `NCCCCCCc1cnc(N)s1` [Fub 296] it was 41%; in that of `NCCCCCc1cnc(N)s1` [Fub 295], 41%.
`Nc1nc(C2CCC(N)CC2)cs1` (stereo not shown) [Fub 206]: the Emax came to 40%.
`NCCCCc1cnc(N)s1` [Fub 218]: the Emax turned out to be 81%.

The target is the same in the next test. In words: tissue or organelle. The settings on record: read-out: Intrinsec activity %. This is another data set of the same source.
Take `CC(C)(C)NCCc1ccc2nc(N)sc2c1` [Fub 289]: the Emax is 23%.
The same measure, in the same setting: as for `COc1ccc(C(O)CNC2CCc3cc(OC)c(OC)cc3C2)cc1` (stereo not shown) [ST 578], the figure is 30%; as for `CCCCCCNCCc1ccc2nc(N)sc2c1` [Fub 288], 35%; as for `CCC(C)(C)NCCc1ccc2nc(N)sc2c1` [Fub 290], 27%.
On the same count and under the same terms, in the case of `CCCC(C)(C)NCCc1ccc2nc(N)sc2c1` [Fub 291] it was 32%; in that of `Sc1nc2ccc(SCCNCCCCc3ccccc3)cc2s1` [ST 576], 38%; in that of `Clc1nc2ccc(CCNCCCCc3ccccc3)cc2s1` [ST 575], 40%.
Same read-out and setting: in the case of `CCCCCCCNCCc1ccc2nc(N)sc2c1` [Fub 303] it was 33%; in that of `CCCCCCCCCNCCc1ccc2nc(N)sc2c1` [Fub 305], 30%; in that of `COc1cc2c(cc1OC)CC(NCC(O)c1ccc(C)cc1)CC2` (stereo not shown) [ST 563], 50%.
On to `CCCCNCCc1ccc2nc(N)sc2c1` [Fub 286], for which the Emax was determined as 31%.
On to `CCN(CCc1ccccc1)C1CCc2cc(OC)c(OC)cc2C1` (stereo not shown) [ST 577], for which the Emax was 25%.
Still for that read-out and setting: in the case of `CCCCCCCCNCCc1ccc2nc(N)sc2c1` [Fub 304] it was 33%; in that of `CCCCCNCCc1ccc2nc(N)sc2c1` [Fub 287], 30%.
Still for that read-out and setting: as for `CCNCCc1ccc2nc(N)sc2c1` [Fub 275], the figure is 15%; as for `CCCNCCc1ccc2nc(N)sc2c1` [Fub 276], 15%.

For a further test the target is unchanged. As to the kind of experiment: tissue or organelle. The settings on record: read-out: Intrinsec activity %. The source holds these as a separate data set.
Consider `Cc1nc(N)sc1CCCCCN` [Fub 238], for which the Emax came to 50%.
Same read-out and setting: as for `CCc1nc(N)sc1CCCN` [Fub 301], the figure is 61%; as for `Cc1nc(N)sc1CCCCN` [Fub 217], 52%; as for `CCc1nc(N)sc1CCCCN` [Fub 309], 40%.
On to `CCc1nc(N)sc1CCN` [Fub 240], for which the Emax was determined as 82%.

The target is the same in another test. As to the kind of experiment: tissue or organelle. The settings on record: read-out: Intrinsec activity %. This is another data set of the same source.
As for `Nc1nc2ccc(CCNCCCCc3ccccc3)cc2s1` [FUBn293], the Emax was determined as 39%.

A further test shares this target. As to the kind of experiment: tissue or organelle. The settings on record: read-out: Intrinsec activity %. The source holds these as a separate data set.
On to `Cc1sc(N)nc1CCCCN` [Fub 302], for which the Emax is 29%.
Take `NCCCCCCc1csc(N)n1` [Fub 239]: the Emax was 23%.
Same read-out and setting: in the case of `NCCCCCc1csc(N)n1` [Fub 216] it was 20%; in that of `Cc1sc(N)nc1CCCN` [Fub 241], 53%.
